Experimental findings from patent US12252524B2, “GIP/GLP1 co-agonist compounds” (Eli Lilly and Company, priority 2018, dated 2025) are described below.

The target of one experiment is T1, human Gcg receptor (Homo sapiens, UniProt P47871).
T1 construct: expressed in transfected cells; crude membranes
Description: [125I]-Glucagon binding (SPA), human Gcg receptor. To be noted: read-out: hGLcgR Ki, nM (SEM, n). The method, boiled down: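 Scintillation counts are taken after membranes and WGA beads incubate and settle for 12 hours at room temperature. Buffer is 25 mM HEPES, pH 7.4, with CaCl2, MgCl2, bacitracin and Tween-20. Ki values, from four-parameter IC50 fits, are geometric means over independent days.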

For another experiment, the target named is human GLP-1R (Homo sapiens, UniProt P43220). Nature of the experiment: [125I]-GLP-1 binding (SPA), human GLP-1 receptor. The arrangement: expressed in transfected cells; crude membranes. The following applies: read-out: hGLP1R Ki, (nM) (SEM, n). The method, boiled down:
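Assay buffer: HEPES 25 mM, pH 7.4, CaCl2 2.5 mM, MgCl2 1 mM, with EDTA-free protease inhibitors. Receptor came from crude cell membranes prepared by homogenization and centrifugation at 4° C. IC50s came from four-parameter fits (maximum, minimum, IC50, Hill slope) and were expressed as Ki geometric means with SEM.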

The target in the next experiment is T2, human GIP receptor (Homo sapiens, UniProt P48546).
T2 construct: expressed in transfected cells; crude membranes
T2 sequence (P48546 22-466): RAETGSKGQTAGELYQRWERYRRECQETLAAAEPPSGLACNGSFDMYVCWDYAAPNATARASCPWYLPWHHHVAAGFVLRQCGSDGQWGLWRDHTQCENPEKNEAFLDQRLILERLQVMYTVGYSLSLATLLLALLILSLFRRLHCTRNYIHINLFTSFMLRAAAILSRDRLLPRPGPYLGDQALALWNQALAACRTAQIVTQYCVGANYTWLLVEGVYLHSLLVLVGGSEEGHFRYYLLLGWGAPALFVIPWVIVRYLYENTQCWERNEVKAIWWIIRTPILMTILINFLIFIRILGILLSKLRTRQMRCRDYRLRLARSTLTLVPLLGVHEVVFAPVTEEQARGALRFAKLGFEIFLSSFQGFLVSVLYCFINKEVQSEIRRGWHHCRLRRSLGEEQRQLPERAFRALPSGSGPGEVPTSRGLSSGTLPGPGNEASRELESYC
Nature of the experiment: [125I]-GIP binding (SPA), human GIP receptor. To be noted: read-out: hGIPR Ki, nM (SEM, n).

Experiment [1] addresses T3, gastric inhibitory peptide receptor (GIPR) (Homo sapiens, UniProt P48546).
T3 sequence (P48546 22-466): T2 sequence (P48546 22-466)
Description: cAMP pharmacological functional assay in presence of casein, hGIPR. The experiment is classed as cell-based. The following applies: HEK293 cells expressing hGIPR, 0.1% Casein, geometric mean; read-out: hGIPR cAMP Rel EC50 nM (SEM, n).

Experiment [2] addresses human GLP-1 receptor (GLP-1R) (Homo sapiens, UniProt P43220). Description: cAMP pharmacological functional assay in presence of casein, hGLP-1R. The experiment is classed as cell-based. To be noted: HEK293 cells expressing hGLP-1R, 0.1% Casein, geometric mean; read-out: hGLP1R cAMP Rel EC50 nM (SEM, n).

SMILES strings stand for the structures. Numbered stars: 1 amine (or outer) side, 2 acyl side, 3 side chain; on linkers, the order of the positions; unused ones are H or OH. Square brackets hold non-standard residues; d marks the D form. Side chains are listed from the residue outwards. Peptide text beside a SMILES is read from it. * marks the point of attachment. C20 diacid = O=C(O)CCCCCCCCCCCCCCCCCCC(=O)*; γGlu = O=C(O)[C@H](CCC(=O)[*:2])N[*:1]; AEEA = NCCOCCOCC(=O)O; Aib = CC(C)(N)C(=O)O

T1 sequence (P47871 26-477): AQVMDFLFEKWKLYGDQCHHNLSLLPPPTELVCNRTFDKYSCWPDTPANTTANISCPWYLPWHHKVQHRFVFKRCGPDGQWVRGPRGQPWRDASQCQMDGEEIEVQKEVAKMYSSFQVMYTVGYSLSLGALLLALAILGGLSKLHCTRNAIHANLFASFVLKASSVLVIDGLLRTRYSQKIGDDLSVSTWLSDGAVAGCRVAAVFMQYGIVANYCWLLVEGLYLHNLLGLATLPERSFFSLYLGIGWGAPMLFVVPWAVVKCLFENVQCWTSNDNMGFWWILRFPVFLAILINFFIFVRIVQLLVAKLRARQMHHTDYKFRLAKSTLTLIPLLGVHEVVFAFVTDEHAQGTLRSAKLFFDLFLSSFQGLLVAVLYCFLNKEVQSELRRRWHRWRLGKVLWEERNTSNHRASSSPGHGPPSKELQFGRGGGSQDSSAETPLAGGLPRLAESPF
human GLP-1R, sequence (P43220 24-463): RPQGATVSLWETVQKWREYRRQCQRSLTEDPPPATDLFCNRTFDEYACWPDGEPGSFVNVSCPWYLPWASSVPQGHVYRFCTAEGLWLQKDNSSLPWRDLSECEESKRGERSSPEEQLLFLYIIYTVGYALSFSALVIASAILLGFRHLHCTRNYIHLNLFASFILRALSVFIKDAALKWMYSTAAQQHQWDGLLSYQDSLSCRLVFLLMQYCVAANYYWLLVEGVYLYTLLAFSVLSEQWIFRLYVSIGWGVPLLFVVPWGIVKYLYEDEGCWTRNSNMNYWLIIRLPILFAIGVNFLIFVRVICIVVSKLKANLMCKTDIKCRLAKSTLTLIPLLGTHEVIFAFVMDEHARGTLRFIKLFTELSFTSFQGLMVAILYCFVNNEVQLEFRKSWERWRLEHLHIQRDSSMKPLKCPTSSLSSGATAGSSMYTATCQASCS
human GLP-1 receptor (GLP-1R), sequence (P43220 24-463): as above

A word on the Ki: it is a measure of affinity in units of concentration, obtained from inhibition or displacement. For orientation: EC50 means the concentration at which the effect is half-maximal. Consider `CC[C@H](C)[C@H](NC(=O)[C@H](CCCCNC(=O)COCCOCCNC(=O)COCCOCCNC(=O)CC[C@H](NC(=O)CCCCCCCCCCCCCCCCCCC(=O)O)C(=O)O)NC(=O)[C@H](CC(=O)O)NC(=O)[C@H](CC(C)C)NC(=O)[C@H](CC(C)C)NC(=O)[C@@H](NC(=O)[C@H](CO)NC(=O)[C@H](Cc1ccc(O)cc1)NC(=O)[C@H](CC(=O)O)NC(=O)[C@H](CO)NC(=O)[C@@H](NC(=O)[C@H](Cc1ccccc1)NC(=O)[C@@H](NC(=O)CNC(=O)[C@H](CCC(=O)O)NC(=O)C(C)(C)NC(=O)[C@@H](N)Cc1ccc(O)cc1)[C@@H](C)O)[C@@H](C)O)[C@@H](C)CC)C(=O)N[C@@H](C)C(=O)N[C@@H](CCC(N)=O)C(=O)NC(C)(C)C(=O)N[C@@H](C)C(=O)N[C@@H](Cc1ccccc1)C(=O)N[C@H](C(=O)N[C@@H](CCC(=O)O)C(=O)N[C@@H](Cc1ccc(O)cc1)C(=O)N[C@@H](CC(C)C)C(=O)N[C@H](C(=O)N[C@@H](CCC(=O)O)C(=O)NCC(=O)NCC(=O)N1CCC[C@H]1C(=O)N[C@@H](CO)C(=O)N[C@@H](CO)C(=O)NCC(=O)N[C@@H](C)C(=O)N1CCC[C@H]1C(=O)N1CCC[C@H]1C(=O)N1CCC[C@H]1C(=O)N[C@@H](CO)C(N)=O)[C@@H](C)CC)[C@@H](C)CC` [Example 29] (H-Y[Aib]EGTFTSDYSILLDK([AEEA-AEEA-γGlu-C20 diacid])IAQ[Aib]AFIEYLIEGGPSSGAPPPS-NH2), for which the Ki at human Gcg receptor came out at 132 nM; on human GLP-1R it was 8 nM; on human GIP receptor, 0.377 nM. Besides, the values for the EC50 in experiment [1] and in experiment [2] were 0.32 nM and 0.999 nM, respectively.

For `CC[C@H](C)[C@H](NC(=O)[C@H](CC(C)C)NC(=O)[C@H](Cc1ccc(O)cc1)NC(=O)[C@H](CCC(=O)O)NC(=O)[C@@H](NC(=O)[C@H](Cc1ccccc1)NC(=O)[C@H](C)NC(=O)C(C)(C)NC(=O)[C@H](CCC(N)=O)NC(=O)[C@H](CCCCNC(=O)COCCOCCNC(=O)COCCOCCNC(=O)CC[C@H](NC(=O)CCCCCCCCCCCCCCCCCCC(=O)O)C(=O)O)NC(=O)[C@@H](NC(=O)[C@H](CCCCN)NC(=O)[C@H](CC(=O)O)NC(=O)[C@H](CC(C)C)NC(=O)[C@H](CC(C)C)NC(=O)[C@@H](NC(=O)[C@H](CO)NC(=O)[C@H](Cc1ccc(O)cc1)NC(=O)[C@H](CC(=O)O)NC(=O)[C@H](CO)NC(=O)[C@@H](NC(=O)[C@H](Cc1ccccc1)NC(=O)[C@@H](NC(=O)CNC(=O)[C@H](CCC(=O)O)NC(=O)C(C)(C)NC(=O)[C@@H](N)Cc1ccc(O)cc1)[C@@H](C)O)[C@@H](C)O)[C@@H](C)CC)[C@@H](C)CC)[C@@H](C)CC)C(=O)N[C@@H](CCC(=O)O)C(=O)NCC(=O)NCC(=O)N1CCC[C@H]1C(=O)N[C@@H](CO)C(=O)N[C@@H](CO)C(=O)NCC(=O)N[C@@H](C)C(=O)N1CCC[C@H]1C(=O)N1CCC[C@H]1C(=O)N1CCC[C@H]1C(=O)N[C@@H](CO)C(N)=O` [Example 30] (H-Y[Aib]EGTFTSDYSILLDKIK([AEEA-AEEA-γGlu-C20 diacid])Q[Aib]AFIEYLIEGGPSSGAPPPS-NH2), the Ki on human Gcg receptor amounted to 123 nM; on human GLP-1R, 6.2 nM; at human GIP receptor it was 0.151 nM. For the same molecule, the EC50 was 0.114 nM in experiment [1] and 1.84 nM in experiment [2].

`CC[C@H](C)[C@H](NC(=O)[C@H](CCCCN)NC(=O)[C@H](CC(=O)O)NC(=O)[C@H](CC(C)C)NC(=O)[C@H](CC(C)C)NC(=O)[C@@H](NC(=O)[C@H](CO)NC(=O)[C@H](Cc1ccc(O)cc1)NC(=O)[C@H](CC(=O)O)NC(=O)[C@H](CO)NC(=O)[C@@H](NC(=O)[C@H](Cc1ccccc1)NC(=O)[C@@H](NC(=O)CNC(=O)[C@H](CCC(=O)O)NC(=O)C(C)(C)NC(=O)[C@@H](N)Cc1ccc(O)cc1)[C@@H](C)O)[C@@H](C)O)[C@@H](C)CC)C(=O)N[C@@H](C)C(=O)N[C@@H](CCCCNC(=O)COCCOCCNC(=O)COCCOCCNC(=O)CC[C@H](NC(=O)CCCCCCCCCCCCCCCCCCC(=O)O)C(=O)O)C(=O)NC(C)(C)C(=O)N[C@@H](C)C(=O)N[C@@H](Cc1ccccc1)C(=O)N[C@H](C(=O)N[C@@H](CCC(=O)O)C(=O)N[C@@H](Cc1ccc(O)cc1)C(=O)N[C@@H](CC(C)C)C(=O)N[C@H](C(=O)N[C@@H](CCC(=O)O)C(=O)NCC(=O)NCC(=O)N1CCC[C@H]1C(=O)N[C@@H](CO)C(=O)N[C@@H](CO)C(=O)NCC(=O)N[C@@H](C)C(=O)N1CCC[C@H]1C(=O)N1CCC[C@H]1C(=O)N1CCC[C@H]1C(=O)N[C@@H](CO)C(N)=O)[C@@H](C)CC)[C@@H](C)CC` [Example 31] (H-Y[Aib]EGTFTSDYSILLDKIAK([AEEA-AEEA-γGlu-C20 diacid])[Aib]AFIEYLIEGGPSSGAPPPS-NH2): the Ki at human Gcg receptor is 290 nM; on human GLP-1R it was 6.58 nM; at human GIP receptor, 0.0275 nM. For the same molecule, the 50% effective concentration (EC50) was found to be 0.388 nM in experiment [1] and 0.891 nM in experiment [2].

Regarding `CC[C@H](C)[C@H](NC(=O)[C@H](CCCCN)NC(=O)[C@H](CC(=O)O)NC(=O)[C@H](CC(C)C)NC(=O)[C@H](CC(C)C)NC(=O)[C@@H](NC(=O)[C@H](CO)NC(=O)[C@H](Cc1ccc(O)cc1)NC(=O)[C@H](CC(=O)O)NC(=O)[C@H](CO)NC(=O)[C@@H](NC(=O)[C@H](Cc1ccccc1)NC(=O)[C@@H](NC(=O)CNC(=O)[C@H](CCC(=O)O)NC(=O)C(C)(C)NC(=O)[C@@H](N)Cc1ccc(O)cc1)[C@@H](C)O)[C@@H](C)O)[C@@H](C)CC)C(=O)N[C@@H](C)C(=O)N[C@@H](CCC(N)=O)C(=O)NC(C)(C)C(=O)N[C@@H](CCCCNC(=O)COCCOCCNC(=O)COCCOCCNC(=O)CC[C@H](NC(=O)CCCCCCCCCCCCCCCCCCC(=O)O)C(=O)O)C(=O)N[C@@H](Cc1ccccc1)C(=O)N[C@H](C(=O)N[C@@H](CCC(=O)O)C(=O)N[C@@H](Cc1ccc(O)cc1)C(=O)N[C@@H](CC(C)C)C(=O)N[C@H](C(=O)N[C@@H](CCC(=O)O)C(=O)NCC(=O)NCC(=O)N1CCC[C@H]1C(=O)N[C@@H](CO)C(=O)N[C@@H](CO)C(=O)NCC(=O)N[C@@H](C)C(=O)N1CCC[C@H]1C(=O)N1CCC[C@H]1C(=O)N1CCC[C@H]1C(=O)N[C@@H](CO)C(N)=O)[C@@H](C)CC)[C@@H](C)CC` [Example 32] (H-Y[Aib]EGTFTSDYSILLDKIAQ[Aib]K([AEEA-AEEA-γGlu-C20 diacid])FIEYLIEGGPSSGAPPPS-NH2), the Ki was 44.7 nM on human Gcg receptor, 3.96 nM at human GLP-1R and 0.0205 nM at human GIP receptor. In addition, the EC50 amounted to 0.179 nM in experiment [1] and 0.498 nM in experiment [2].

Turning to `CC[C@H](C)[C@H](NC(=O)[C@H](CCCCN)NC(=O)[C@H](CC(=O)O)NC(=O)[C@H](CC(C)C)NC(=O)[C@H](CC(C)C)NC(=O)[C@@H](NC(=O)[C@H](CO)NC(=O)[C@H](Cc1ccc(O)cc1)NC(=O)[C@H](CC(=O)O)NC(=O)[C@H](CO)NC(=O)[C@@H](NC(=O)[C@H](Cc1ccccc1)NC(=O)[C@@H](NC(=O)CNC(=O)[C@H](CCC(=O)O)NC(=O)C(C)(C)NC(=O)[C@@H](N)Cc1ccc(O)cc1)[C@@H](C)O)[C@@H](C)O)[C@@H](C)CC)C(=O)N[C@@H](C)C(=O)N[C@@H](CCC(N)=O)C(=O)NC(C)(C)C(=O)N[C@@H](C)C(=O)N[C@@H](Cc1ccccc1)C(=O)N[C@@H](CCCCNC(=O)COCCOCCNC(=O)COCCOCCNC(=O)CC[C@H](NC(=O)CCCCCCCCCCCCCCCCCCC(=O)O)C(=O)O)C(=O)N[C@@H](CCC(=O)O)C(=O)N[C@@H](Cc1ccc(O)cc1)C(=O)N[C@@H](CC(C)C)C(=O)N[C@H](C(=O)N[C@@H](CCC(=O)O)C(=O)NCC(=O)NCC(=O)N1CCC[C@H]1C(=O)N[C@@H](CO)C(=O)N[C@@H](CO)C(=O)NCC(=O)N[C@@H](C)C(=O)N1CCC[C@H]1C(=O)N1CCC[C@H]1C(=O)N1CCC[C@H]1C(=O)N[C@@H](CO)C(N)=O)[C@@H](C)CC` [Example 33] (H-Y[Aib]EGTFTSDYSILLDKIAQ[Aib]AFK([AEEA-AEEA-γGlu-C20 diacid])EYLIEGGPSSGAPPPS-NH2; N-terminus assumed), the results for the Ki at human Gcg receptor, on human GLP-1R and at human GIP receptor were above 979 nM, 361 nM and 6.4 nM, respectively. For the same molecule, the values for the EC50 in experiment [1] and in experiment [2] were 63.3 nM and 251 nM, respectively.
